Common to all, as to assay: HTS ATP-utilizing enzyme assay, off-chip mobility-shift (Caliper HTS 250)
Common to all, as to conditions: test compound 10 μM, kinase listed = active (greater than six-sigma from the mean activity of inactive compounds)

In one test the target is SRC (Homo sapiens, UniProt P12931). The class given is biochemical. In outline:
(§1)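 Inhibition is reported from a single 10 μM concentration. Kinase phosphorylates a peptide substrate over 2.5 hrs at 20° C. to 22° C. before EDTA termination. Potential hits are those beyond six-sigma statistical limits.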

A further test relates to CK2. In kind it is biochemical, human. From the text:
The following procedures describe the reagent and plate preparation for a HTS of an ATP-utilizing enzyme, such as a protein kinase, run in an off-chip mobility-shift assay format. The following provides an HTS protocol for running a protein kinase HTS screen on a Caliper HTS 250 microfluidics system. The following parameters are dependent on the protein kinase used and can be determined by one skilled in the art as part of a typical assay development process. For example, the peptide substrate used can be identified from the current literature, by screening a peptide library of potential protein kinase substrates, or by other applicable means accepted in the field.
The following table provides typical screen assay parameters appropriate for a Caliper HTS 250 microfluidics system.
The reagents and buffers listed in the following table are generally applicable for developing and running an HTS screen on a human protein kinase using the Caliper HTS 250 system.
The following reagents were prepared using the previously described buffers.
A 2× Master Buffer solution was prepared by combining 200 mL of 1 M HEPES, pH 7.5, 2 mL of 10% Triton X-100, 20 mL of 10% BSA, and 778 mL of H2O.
A 2.5× Substrate Buffer solution was prepared by combining 177.408 mL of 2× Master Buffer, 0.887 mL of 1 mM peptide-X, and 176.521 mL of H2O.
A 1.55× Termination Buffer solution was prepared by combining 762.05 mL of 2× Master Buffer, 95.1 mL of 0.5 M EDTA, and 666.94 mL of H2O. […]
Assays to determine the kinase inhibitory activity of compounds of the present disclosure were performed using a Caliper HTS 250 microfluidics device, Greiner U-bottom assay plates, a Multidrop for transfer of reagents, and Biomek FX (AMNCBM03) software. […] The inhibition of the ATP-utilizing enzyme, such as a particular protein kinase, was determined by measuring the ratio of the peptide substrate to phosphorylated product for each well of the assay plate using the Caliper HTS 250 system. […]

Another test deals with AKT1 (Homo sapiens, UniProt P31749). In kind it is biochemical. The essentials: as §1
Chain of AKT1 (P31749 whole entry): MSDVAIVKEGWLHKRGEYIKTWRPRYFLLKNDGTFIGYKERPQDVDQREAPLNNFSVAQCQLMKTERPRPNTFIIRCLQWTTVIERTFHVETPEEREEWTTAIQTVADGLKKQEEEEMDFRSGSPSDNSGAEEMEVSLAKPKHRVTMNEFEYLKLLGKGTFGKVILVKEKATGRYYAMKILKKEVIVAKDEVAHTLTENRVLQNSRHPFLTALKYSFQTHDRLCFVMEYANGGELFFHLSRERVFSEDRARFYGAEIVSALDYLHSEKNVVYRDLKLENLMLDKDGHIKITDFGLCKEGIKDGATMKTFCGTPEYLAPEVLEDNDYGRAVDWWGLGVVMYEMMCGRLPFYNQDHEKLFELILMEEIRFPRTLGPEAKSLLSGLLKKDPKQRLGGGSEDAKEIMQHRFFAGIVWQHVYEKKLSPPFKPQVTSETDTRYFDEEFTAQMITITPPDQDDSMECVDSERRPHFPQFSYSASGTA

Chain of SRC (P12931 whole entry): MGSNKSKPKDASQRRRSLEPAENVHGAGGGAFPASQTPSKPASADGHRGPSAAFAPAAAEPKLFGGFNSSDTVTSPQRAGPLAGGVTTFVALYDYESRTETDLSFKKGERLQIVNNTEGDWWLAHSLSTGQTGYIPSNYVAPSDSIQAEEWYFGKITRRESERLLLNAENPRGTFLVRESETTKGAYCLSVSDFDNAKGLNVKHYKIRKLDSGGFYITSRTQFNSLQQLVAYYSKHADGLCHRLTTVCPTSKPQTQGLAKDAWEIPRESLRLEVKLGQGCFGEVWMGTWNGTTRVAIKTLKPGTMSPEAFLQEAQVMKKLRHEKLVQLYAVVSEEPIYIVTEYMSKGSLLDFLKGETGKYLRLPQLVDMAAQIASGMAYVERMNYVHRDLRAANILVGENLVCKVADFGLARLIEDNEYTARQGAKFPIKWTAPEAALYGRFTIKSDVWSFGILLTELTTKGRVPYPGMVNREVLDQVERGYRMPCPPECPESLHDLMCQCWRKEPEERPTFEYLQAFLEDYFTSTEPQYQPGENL

For `CN1CCN(c2ccc(Nc3ccnc4ccc(-c5cccc6ccccc56)cc34)cc2)CC1` [N-(4-(4-methylpiperazin-1-yl)phenyl)-6-(naphthalen-1-yl)quinolin-4-amine], on SRC, the Activity entry is “SRC”. In the case of `CN1CCN(c2ccc(Nc3ccnc4ccc(-c5ccncc5)cc34)cc2)CC1` [N-(4-(4-methylpiperazin-1-yl)phenyl)-6-(pyridin-4-yl)quinolin-4-amine], the Activity entry was “CK2” in the test with CK2 and “AKT1” at AKT1.

For the origin of these results see US7452887B2, “Quinoline- and isoquinoline-based compounds exhibiting ATP-utilizing enzyme inhibitory activity, and compositions, and uses thereof” (Amphora Discovery Corporation, priority 2004, dated 2008).
